Experimental data from patent US20190233884A1 (University of Southern California, priority 2016, published 2019).

Test system: patients with refractory metastatic colorectal cancer (mCRC)
Assay: PFS, OS and disease control in the training (evaluation) cohort of refractory mCRC patients receiving TAS-102 (n=52, Japan), by baseline characteristics, SNP genotype and toxicity
Type: in vivo, human
Conditions: evaluation cohort
Experimental: All patients underwent the treatment in salvage-line setting. […]
(§1) Genomic DNA was extracted from peripheral whole blood in patients of all cohorts using the QIAmp Kit (Qiagen, Valencia, Calif., USA) according to the manufacturer's protocol (www.qiagen.com). The candidate SNPs were genotyped using PCR-based direct DNA sequence analysis by ABI 3100A Capillary Genetic Analyzer and Sequencing Scanner v1.0 (Applied Biosystems). Amplification of extracted DNA was carried out using both forward and reverse primers for each gene polymorphism as shown in Table 1. […] The investigators analyzing SNPs were blinded to the clinical data of the study patients.
The primary endpoint in this study was progression-free survival (PFS), and the secondary endpoints were overall survival (OS) and disease control rate (DCR). PFS was calculated from the date of starting treatment to the first observation of disease progression or death from any cause. If a patient had no disease progression or death, PFS was censored at the date of last follow up. OS was calculated from the date of starting treatment until the date of death from any cause or the date of the last follow-up, at which point OS was censored. The disease control rate (DCR) was defined as the proportion of patients who achieved a stable disease (SD) or […] according to RECISTv1.1. Chi-square test was used to examine the difference in baseline patient characteristics among the three cohorts. Allelic distribution of all SNPs by ethnicity for deviation from Hardy-Weinberg equilibrium and the allelic frequencies of SNPs were tested using the Chi-square tests with one degree of freedom. The associations between candidate SNPs and disease control, and toxicities were examined using contingency tables and Fisher's exact test. The associations of SNPs with PFS and OS were analysed using Kaplan-Meier curves and the log-rank test. Because the true mode of inheritance of candidate SNPs was not established yet, a codominant or dominant genetic model if appropriate was considered.
All patients underwent the treatment in salvage-line setting. […] In all patients, adverse events were graded according to the Common Terminology Criteria for Adverse Events, version 4.0. […]
as §1, with “tested” for “genotyped”, “Biosystems).” for “Biosystems). Amplification of extracted DNA was carried out using both forward and reverse primers for each gene polymorphism as shown in Table 1.”, “data.” for “data of the study patients.”
The primary endpoint in this study was progression-free survival (PFS), and the secondary endpoints were overall survival (OS) and disease control rate (DCR).

[1] = CHEK2 rs2267130 Any C vs T/T (Ref.), multivariable
[2] = CHEK2 rs2267130 Any C vs T/T (Ref.), univariate
[3] = CHEK2 rs2267130 C/C vs T/T (Ref.), multivariable
[4] = CHEK2 rs2267130 C/C vs T/T (Ref.), univariate
[5] = CHEK2 rs2267130 T/C vs T/T (Ref.), multivariable
[6] = CHEK2 rs2267130 T/C vs T/T (Ref.), univariate
[7] = Che1 rs1564796 T/C and C/C grouped together
[8] = FANCD2 rs6792811 G/A and G/G grouped together

## Trifluridine/tipiracil [TAS-102]
BRCA1 rs16941 T/C
  PD, patients n (%): 15 (68%)
BRCA1 rs16941 T/T
  Disease Control Rate SD, patients n (%): 7 (37%)
  PD, patients n (%): 12 (63%)
BRCA1 rs799917 A/A
  Disease Control Rate SD, patients n (%): 1 (20%)
  PD, patients n (%): 4 (80%)
BRCA1 rs799917 Any A
  Disease Control Rate SD, patients n (%): 8 (30%)
  PD, patients n (%): 19 (70%)
BRCA1 rs799917 G/A
  Disease Control Rate SD, patients n (%): 7 (32%)
  PD, patients n (%): 15 (68%)
BRCA1 rs799917 G/G
  Disease Control Rate SD, patients n (%): 7 (37%)
  PD, patients n (%): 12 (63%)
BRCA2 rs144848 A/A
  Disease Control Rate SD, patients n (%): 8 (29%)
  PD, patients n (%): 20 (71%)
BRCA2 rs144848 A/C
  Disease Control Rate SD, patients n (%): 6 (46%)
  PD, patients n (%): 7 (54%)
BRCA2 rs144848 Any C
  Disease Control Rate SD, patients n (%): 7 (39%)
  PD, patients n (%): 11 (61%)
BRCA2 rs144848 C/C
  Disease Control Rate SD, patients n (%): 1 (20%)
  PD, patients n (%): 4 (80%)
CHEK2 rs2267130 Any C
  Disease Control CR/PR/SD, patients n (%): 12 (46%)
  Median OS (95% CI): 8.3 (5.7, 15.6+) months
  Median PFS (95% CI): 3.4 (2.1, 4.6) months
  PD, patients n (%): 14 (54%)
[1]
  HR OS (95% CI): 0.71 (0.29, 1.77)
  HR PFS (95% CI): 0.49 (0.26, 0.94)
[2]
  HR OS (95% CI): 0.71 (0.29, 1.74)
  HR PFS (95% CI): 0.48 (0.25, 0.90)
CHEK2 rs2267130 C/C
  Disease Control CR/PR/SD, patients n (%): 3 (43%)
  Median OS (95% CI): 5.7 (1.4, 10.7+) months
  Median PFS (95% CI): 2.7 (0.9, 4.6+) months
  PD, patients n (%): 4 (57%)
[3]
  HR OS (95% CI): 1.31 (0.39, 4.42)
  HR PFS (95% CI): 0.59 (0.23, 1.51)
[4]
  HR OS (95% CI): 1.21 (0.37, 3.99)
  HR PFS (95% CI): 0.62 (0.25, 1.58)
CHEK2 rs2267130 T/C
  Disease Control CR/PR/SD, patients n (%): 9 (47%)
  Median OS (95% CI): 12.4 (6.3, 15.6+) months
  Median PFS (95% CI): 3.7 (2.1, 5.2) months
  PD, patients n (%): 10 (53%)
[5]
  HR OS (95% CI): 0.56 (0.20, 1.55)
  HR PFS (95% CI): 0.46 (0.22, 0.94)
[6]
  HR OS (95% CI): 0.59 (0.22, 1.60)
  HR PFS (95% CI): 0.44 (0.22, 0.89)
CHEK2 rs2267130 T/T
  Disease Control CR/PR/SD, patients n (%): 3 (15%)
  Median OS (95% CI): 8.1 (4.4, 8.7+) months
  Median PFS (95% CI): 2.1 (1.6, 2.9) months
  PD, patients n (%): 17 (85%)
  PFS: 2.1 months
CHEK2 rs22236142 Any C
  Disease Control Rate SD, patients n (%): 7 (27%)
  PD, patients n (%): 19 (73%)
CHEK2 rs22236142 C/C
  Disease Control Rate SD, patients n (%): 2 (25%)
  PD, patients n (%): 6 (75%)
CHEK2 rs22236142 G/C
  Disease Control Rate SD, patients n (%): 5 (28%)
  PD, patients n (%): 13 (72%)
CHEK2 rs22236142 G/G
  Disease Control Rate SD, patients n (%): 8 (40%)
  PD, patients n (%): 12 (60%)
Che1 rs1045056 T/C
  Disease Control Rate SD, patients n (%): 2 (22%)
  PD, patients n (%): 7 (78%)
Che1 rs1045056 T/T
  Disease Control Rate SD, patients n (%): 13 (35%)
  PD, patients n (%): 24 (65%)
[7]
  Disease Control Rate SD, patients n (%): 3 (25%)
  PD, patients n (%): 8 (67%)
Che1 rs1564796 T/T
  Disease Control Rate SD, patients n (%): 12 (34%)
  PD, patients n (%): 23 (66%)
FANCD2 rs2272125 T/G
  Disease Control Rate SD, patients n (%): 3 (50%)
  PD, patients n (%): 3 (50%)
FANCD2 rs2272125 T/T
  Disease Control Rate SD, patients n (%): 12 (30%)
  PD, patients n (%): 28 (70%)
FANCD2 rs6792811 A/A
  Disease Control Rate SD, patients n (%): 10 (33%)
  PD, patients n (%): 20 (67%)
[8]
  Disease Control Rate SD, patients n (%): 5 (29%)
  PD, patients n (%): 11 (71%)
PCNA rs25406 A/A
  Disease Control Rate SD, patients n (%): 4 (36%)
  PD, patients n (%): 7 (64%)
PCNA rs25406 Any A
  Disease Control Rate SD, patients n (%): 12 (44%)
  PD, patients n (%): 15 (56%)
PCNA rs25406 G/A
  Disease Control Rate SD, patients n (%): 8 (50%)
  PD, patients n (%): 8 (50%)
PCNA rs25406 G/G
  Disease Control Rate SD, patients n (%): 3 (19%)
  PD, patients n (%): 13 (81%)
Pin1 rs2233678 G/C
  Disease Control Rate SD, patients n (%): 0%
  PD, patients n (%): 2 (100%)
Pin1 rs2233678 G/G
  Disease Control Rate SD, patients n (%): 15 (34%)
  PD, patients n (%): 29 (66%)
Pin1 rs2233679 Any T
  Disease Control Rate SD, patients n (%): 11 (38%)
  PD, patients n (%): 18 (62%)
Pin1 rs2233679 C/C
  Disease Control Rate SD, patients n (%): 4 (24%)
  PD, patients n (%): 13 (76%)
Pin1 rs2233679 C/T
  Disease Control Rate SD, patients n (%): 8 (36%)
  PD, patients n (%): 14 (64%)
Pin1 rs2233679 T/T
  Disease Control Rate SD, patients n (%): 3 (43%)
